From patent publication US8772503B2, “Processes for the preparation of deferasirox, and deferasirox polymorphs” (Mapi Pharma Ltd., priority 2009, dated 2014)

Test: Heating/drying of the solid form, rechecked by XRPD and DSC
Assay type: physicochemical
Details: for Solid form after heating (XRPD, DSC): heated to 160° C. under vacuum, 5 minutes
Experimental: Details of XRPD method used in the tests are mentioned below:
Details of DSC method used in the tests are mentioned below:
Heat from 30° C. to 350° C. at 10° C./min
Form II was further dried by heating (e.g. 60° C. for 1 h) after being checked by XRPD, DSC, TGA and NMR. The XRPD and DSC of Form II were rechecked following the dehydration process.
Form III was further dried at 120° C. after being checked by XRPD, DSC, TGA and NMR. The XRPD and DSC were rechecked.
Amorphous deferasirox was heated to 160° C. under vacuum and kept at this temperature for 5 min. The formed crystal was rechecked by XRPD and DSC.

Structure (SMILES): O=C(O)c1ccc(-n2nc(-c3ccccc3O)nc2-c2ccccc2O)cc1 [Form V, 4-[3,5-Bis(2-hydroxyphenyl)-1H-1,2,4-triazol-1-yl]benzoic acid]
- Solid form after heating/drying (XRPD, DSC) (dried at 120° C. for 1 hr, vacuum): converted to Form I

Structure (SMILES): O=C(O)c1ccc(-n2nc(-c3ccccc3O)nc2-c2ccccc2O)cc1 [Form II, 4-[3,5-Bis(2-hydroxyphenyl)-1H-1,2,4-triazol-1-yl]benzoic acid]
- Solid form after heating/drying (XRPD, DSC) (heated to 60° C. for 1 hr): converted to Form I

Structure (SMILES): O=C(O)c1ccc(-n2nc(-c3ccccc3O)nc2-c2ccccc2O)cc1 [amorphous deferasirox, 4-[3,5-Bis(2-hydroxyphenyl)-1H-1,2,4-triazol-1-yl]benzoic acid]
- Solid form after heating (XRPD, DSC): converted to Form I
- Solid form after heating (XRPD, DSC) (listed as Amorphous): transformed into Form I
